Test results published in US20210347709A1, “RADIOFLUORINATED GPC3-BINDING PEPTIDES FOR PET IMAGING OF HEPATOCELLULAR CARCINOMA” (University of Southern California, priority 2020, published 2021).
Like-named read-outs stand apart in the source and are kept apart here.

Key:
[1] = In vitro stability in PBS and mouse serum; type: in vitro ADME; conditions: PBS at room temperature and mouse serum at 37° C., 2 h incubation, HPLC
Method: In Vitro Stability. The stability of Al[^18F]F-GP2076 or Al[^18F]F-GP2633 was evaluated in PBS and mouse serum. Briefly, 5.55 MBq of Al[^18F]F-GP2076 or Al[^18F]F-GP2633 was incubated with 0.5 ml of PBS at room temperature or mouse serum at 37° C. with gentle shaking. The stability test was carried out at 2 h after the incubation. For the PBS study, an aliquot of the solution was taken, and the radiochemical purity was determined by analytical HPLC. For the mouse serum study, after the addition of TFA, the mixture was passed through a 0.2-μm filter. An aliquot of the soluble fraction was taken, and the radiochemical purity was examined by analytical HPLC.

[2] = MicroPET/CT imaging and biodistribution, HepG2 tumor model; type: in vivo, nude mice; conditions: both sexes, BALB/c nude, mouse, iv, 5.55 MBq, total radioactivity; for tissue to tissue ratio at 1 h / tissue to tissue ratio at 0.5 h / tissue to tissue ratio at 2 h: HepG2 (GPC3+) tumor bearing mice; for tissue to tissue ratio at 1 h / tissue uptake at 1 h: 60 min; for tissue to tissue ratio at 0.5 h / tissue uptake at 0.5 h: 30 min; for tissue to tissue ratio at 2 h / tissue uptake at 2 h: 120 min; for tissue uptake at 0.5 h / tissue uptake at 1 h / tissue uptake at 2 h: HepG2 (GPC3+) tumor model, PET
Method: MicroPET/CT Imaging and Biodistribution. MicroPET/CT scans were carried out using a Siemens Inveon PET/CT scanner (Siemens, Germany). Tumor-bearing mice (n=3/group) were intravenously injected with 5.55 MBq of Al[^18F]F-GP2076 or Al[^18F]F-GP2633 under isoflurane anesthesia. A ten-minute static PET scan for each animal was acquired at 30, 60, and 120 min after the injection. 3-Dimensional ordered subset expectation maximization (3D-OSEM) algorithm was used for the PET reconstruction, and CT was applied for attenuation correction. Detailed procedures for the microPET/CT imaging and biodistribution are provided in ESM.
All animal experiments were conducted according to the guideline of the Nanfang Hospital Animal Ethics Committee at the Southern Medical University. Male or female BALB/c nude mice (about 4-6 weeks old) were obtained from the Laboratory Animal Center at Southern Medical University. The HepG2 and McA-RH7777 HCC xenografts were established by subcutaneous injection of 1×10^6 tumor cells into the left shoulder of nude mice. The animals were used for in vivo studies when the tumors reached a size of 0.5-1 cm in diameter (4-6 weeks after inoculation).
Inveon Research Workplace (IRW) 3.0 software (Siemens, Germany) was used to measure the regions of interest (ROIs) determined by superimposing the ellipsoid volume of interest (VOI) on the target tissues. The radioactivity concentrations were measured by the mean pixel intensity within each VOI and converted to dose/ml using a calibration constant. Assuming the tissue density of 1 g/ml, the ROI was then converted to dose per gram and normalized as the percent injected dose per gram (% ID/g). Tumor-to-nontarget uptake ratios, including tumor-to-muscle (T/M), tumor-to-liver (T/L), and tumor-to-kidneys (T/K) ratios, were calculated by dividing the radioactivity uptake in tumor by that in the corresponding normal tissue or organ.

[3] = HepG2 tumor / liver, read-out: Tumor-to-liver (T/L) uptake ratio
[4] = HepG2 tumor / muscle, read-out: Tumor-to-muscle (T/M) uptake ratio
[5] = intestine, read-out: Intestinal uptake
[6] = decay-corrected, read-out: Tumor uptake
[7] = kidneys, read-out: Kidneys uptake
[8] = muscle, read-out: Muscle uptake
[9] = tumor / kidneys, read-out: Tumor-to-kidneys (T/K) uptake ratio

percentage of intact radiotracer (in vitro stability) [1]: > 95%
tissue to tissue ratio at 1 h ([2]; HepG2 tumor / kidneys, read-out: Tumor-to-kidneys (T/K) uptake ratio): 0.31 ± 0.04
tissue to tissue ratio at 0.5 h [2, 3]: 0.43 ± 0.06
tissue to tissue ratio at 1 h [2, 3]: 0.59 ± 0.14
tissue to tissue ratio at 2 h [2, 3]: 0.46 ± 0.4
tissue to tissue ratio at 0.5 h [2, 4]: 5.56 ± 1.36
tissue to tissue ratio at 1 h [2, 4]: 5.13 ± 2.08
tissue to tissue ratio at 2 h [2, 4]: 2.68 ± 0.29
tissue uptake at 0.5 h ([2]; bone, read-out: Bone uptake): 0.95 %ID/g
tissue uptake at 1 h ([2]; bone, read-out: Bone uptake): 0.35 %ID/g
tissue uptake at 2 h ([2]; bone, read-out: Bone uptake): 0.21 %ID/g
tissue uptake at 0.5 h ([2]; brain, read-out: Brain uptake): 0.63 %ID/g
tissue uptake at 1 h ([2]; brain, read-out: Brain uptake): 0.18 %ID/g
tissue uptake at 2 h ([2]; brain, read-out: Brain uptake): 0.13 %ID/g
tissue uptake at 0.5 h ([2]; heart, read-out: Heart uptake): 1.29 %ID/g
tissue uptake at 1 h ([2]; heart, read-out: Heart uptake): 1.05 %ID/g
tissue uptake at 2 h ([2]; heart, read-out: Heart uptake): 0.36 %ID/g
tissue uptake at 0.5 h [2, 5]: 3.03 %ID/g
tissue uptake at 1 h [2, 5]: 2.57 %ID/g
tissue uptake at 2 h [2, 5]: 1.8 %ID/g
tissue uptake at 0.5 h [2, 6]: 2.2 %ID/g
tissue uptake at 1 h [2, 6]: 2.13 %ID/g
tissue uptake at 2 h [2, 6]: 0.73 %ID/g
tissue uptake at 0.5 h [2, 7]: 9.83 %ID/g
tissue uptake at 1 h [2, 7]: 7.03 %ID/g
tissue uptake at 2 h [2, 7]: 2.27 %ID/g
tissue uptake at 0.5 h ([2]; liver, read-out: Liver uptake): 5.1 %ID/g
tissue uptake at 1 h ([2]; liver, read-out: Liver uptake): 3.7 %ID/g
tissue uptake at 2 h ([2]; liver, read-out: Liver uptake): 2.07 %ID/g
tissue uptake at 0.5 h ([2]; lung, read-out: Lung uptake): 1.57 %ID/g
tissue uptake at 1 h ([2]; lung, read-out: Lung uptake): 0.78 %ID/g
tissue uptake at 2 h ([2]; lung, read-out: Lung uptake): 0.43 %ID/g
tissue uptake at 0.5 h [2, 8]: 0.41 %ID/g
tissue uptake at 1 h [2, 8]: 0.44 %ID/g
tissue uptake at 2 h [2, 8]: 0.28 %ID/g
tissue to tissue ratio at 0.5 h [2, 9]: 0.25 ± 0.11
tissue to tissue ratio at 2 h [2, 9]: 0.46 ± 0.46
Compound: CC(C)C[C@H](NC(=O)[C@H](CCCNC(=N)N)NC(=S)Nc1ccc(CC2CN(CC(=O)O)CCN(CC(=O)O)CCN2CC(=O)O)cc1)C(=O)N[C@@H](CC(N)=O)C(=O)N[C@H](C(=O)NCC(=O)NCC(=O)N[C@H](C(=O)N[C@@H](Cc1ccc(O)cc1)C(=O)N[C@@H](Cc1ccccc1)C(=O)N[C@@H](CC(C)C)C(=O)N[C@H](C(=O)N[C@H](C(=O)N[C@@H](CCCNC(=N)N)C(=O)N[C@@H](CCC(N)=O)C(=O)O)[C@@H](C)O)[C@@H](C)O)[C@@H](C)O)C(C)C (single isomer, unassigned) [Al[^18F]F-GP2076]
